For experiment [1], the target named is T1, human Aldose reductase (hAR) (Homo sapiens, UniProt P15121).
T1 construct: hexa-His (cleaved yes); made in house; host or cells: E. coli BL21
Description: Fluorescence titration (quenching) of cofactor binding to hAR. Conditions: for Kd: 0.5 μM protein. Here is the method: (§1) The fluorescence intensities of hAR decreased gradually when the concentrations of quenchers (i.e. inhibitor and cofactors) were increased. The observed fluorescence data were used for calculating the fluorescence quenching (Q% = (F^0 − F)/F^0) where F is the measured fluorescence and F^0 is the fluorescence in the absence of quenchers.
(§2) Fluorescence titration was performed for the binding of NADPH to hAR at a protein concentration of 0.5 μM in 5 mM sodium phosphate buffer (pH 7.0) containing 100 μM DTT. The titration for NADP^+ binding to hAR was conducted at a protein concentration of 0.5 μM in 10 mM Tris-HCl buffer (pH 9.0) containing 100 μM DTT in 1.4 ml quartz cuvette by measuring fluorescence by SpectraMax M2 (Molecular Device, CA). The concentration of protein•NADP^+/NADPH complexes formed were measured by extensive quenching of protein fluorescence by varying the concentrations of NADP^+/NADPH at excitation and emission wavelengths of 295 and 365 nm, respectively following the procedure described by[43][44]. This method was extended for inhibitor (WY 14,643) binding to enzyme•NADPH complex at protein concentration of 0.5 μM in 5 mM sodium phosphate buffer (pH 7.0) containing 100 μM DTT by keeping saturated fixed 60 μM concentration of NADPH and by varying the concentrations of WY 14,643. The binding of inhibitor (WY 14,643) to enzyme•NADP^+ complex was measured at 0.5 μM protein concentration in 10 mM Tris-HCl buffer (pH 9.0) containing 100 μM DTT by keeping saturated fixed 60 μM concentration of NADP^+ and varying the WY 14,643. The concentrations of enzyme•NADP^+/NADPH•inhibitor complex formed were measured by quenching of fluorescence protein•NADP^+/NADPH complexes with excitation and emission wavelengths 295 and 365 nm, respectively.
The methodology described by van de Weert 2010 was followed in the binding constant determination. The fractional saturation (α) of protein by cofactors (NADP^+/NADPH) and by inhibitor (WY 14,643) binding to protein can be expressed in the form of fluorescence as follows;
The binding dissociation constants and stoichiometry for the binding of quenchers (cofactors and inhibitor) to protein were calculated by non-linear fitting to the experimental fluorescence data and results are shown in Table 1.

The target of experiment [2] is T2, hAR•NADPH (Homo sapiens, UniProt P15121).
T2 construct: hexa-His (cleaved yes); made in house; host or cells: E. coli BL21
The experiment is described as follows: Fluorescence titration of inhibitor binding to the hAR•NADPH binary complex. Conditions: 60 μM NADPH, 5 mM sodium phosphate pH 7.0. Here is the method: as §1
as §2, with “This method was extended for inhibitor (WY 14,643) binding to enzyme•NADPH complex at protein concentration of 0.5 μM in 5 mM sodium phosphate buffer (pH 7.0) containing 100 μM DTT by keeping saturated fixed 60 μM concentration of NADPH and by varying the concentrations of WY 14,643.” left out, “The concentrations of enzyme•NADP^+/NADPH•inhibitor complex formed were measured by quenching of fluorescence protein•NADP^+/NADPH complexes with excitation and emission wavelengths 295 and 365 nm, respectively.” left out

Experiment [3] concerns the target T3, hAR•NADP^+ (Homo sapiens, UniProt P15121).
T3 construct: hexa-His (cleaved yes); made in house; host or cells: E. coli BL21
The experiment is described as follows: Fluorescence titration of inhibitor binding to the hAR•NADP^+ binary complex. Conditions: 60 μM NADP^+, 10 mM Tris-HCl pH 9.0. Here is the method:
as §1
as §2, with “This method was extended for inhibitor (WY 14,643) binding to enzyme•NADPH complex at protein concentration of 0.5 μM in 5 mM sodium phosphate buffer (pH 7.0) containing 100 μM DTT by keeping saturated fixed 60 μM concentration of NADPH and by varying the concentrations of WY 14,643.” left out, “The concentrations of enzyme•NADP^+/NADPH•inhibitor complex formed were measured by quenching of fluorescence protein•NADP^+/NADPH complexes with excitation and emission wavelengths 295 and 365 nm, respectively.” left out

The target in experiment [4] is T1, human Aldose reductase (hAR). Set-up: method as in PMID 17194029. The note with it: cited from earlier work.
Experiment [5] relates to rat livers. Set-up: method as in PMID 195342. Conditions: cited from earlier work.

Read-outs that look alike come from different tables or passages of the source.

In general, Kd refers to the equilibrium constant for the complex coming apart.

Take `NC(=O)C1=CN([C@@H]2O[C@H](COP(=O)(O)OP(=O)(O)OC[C@H]3O[C@@H](n4cnc5c(N)ncnc54)[C@H](OP(=O)(O)O)[C@@H]3O)[C@@H](O)[C@H]2O)C=CC1` [NADPH]: in experiment [1] (NADPH binding to apo hAR, 5 mM sodium phosphate pH 7.0, 100 μM DTT, read-out: Kd(E-NADPH), equilibrium dissociation constant), the dissociation constant Kd is 480 ± 40 nM. Also, in experiment [1] (NADPH binding to apo hAR, 5 mM sodium phosphate pH 7.0), the “stoichiometry coefficient (n), E-NADPH” value came out at 1.25 ± 0.1.
For the compound `NC(=O)c1ccc[n+]([C@@H]2O[C@H](COP(=O)([O-])OP(=O)(O)OC[C@H]3O[C@@H](n4cnc5c(N)ncnc54)[C@H](OP(=O)(O)O)[C@@H]3O)[C@@H](O)[C@H]2O)c1` [NADP^+], in experiment [1] (NADP^+ binding to apo hAR, 10 mM Tris-HCl pH 9.0, 100 μM DTT, read-out: Kd(E-NADP^+), equilibrium dissociation constant), the Kd turned out to be 210 ± 10 nM. For the same compound, the “stoichiometry coefficient (n), E-NADP^+” value in experiment [1] (NADP^+ binding to apo hAR, 10 mM Tris-HCl pH 9.0) came out at 1.05 ± 0.03. Besides, the “fold higher affinity of NADP^+ than NADPH for hAR” value in experiment [1] (fluorescence quenching data, oxidized vs reduced cofactor) is listed as 2 fold.
On to `Cc1cccc(Nc2cc(Cl)nc(SCC(=O)O)n2)c1C` [WY 14,643, [4-Chloro-6-(2,3-xylidino)-2-pyrimidinylthio]acetic Acid], for which the Kd stood at 110 nM in experiment [2] (0.5 μM protein) and 104 nM in experiment [3] (0.5 μM protein). Besides, the “stoichiometry coefficient (n), binding with hAR•NADPH complex” value in experiment [2] stood at 1.25 ± 0.06. In experiment [3], the “stoichiometry coefficient (n), binding with hAR•NADP^+ complex” value turned out to be 1.37 ± 0.05. The “Kii (intercept inhibition constant)” value in experiment [4] (forward reaction (reduction of DL-glyceraldehyde)) was 1.8 µM. For the same compound, the Ki in experiment [4] (forward reaction (reduction of DL-glyceraldehyde), read-out: Kis (the slope inhibition constant)) was 1800 nM. For the same compound, the mode of inhibition result in experiment [4] (oxidation of benzyl alcohol) is “pure non-competitive”. The pattern of inhibition result in experiment [4] (with respect to the reduction of DL-glyceraldehyde) is given as “classical non-competitive”. Besides, the “increased capacity in oxidization of palmitoyl-coenzyme A” value in experiment [5] was 18 fold.

The values above are taken from PMC5056380, “Characterization of WY 14,643 and its Complex with Aldose Reductase” (Scientific Reports, 2016).
